Results as given in patent US20080293583A1, “Methods for diagnosing mood disorders” (Wyeth, priority 2003, published 2008).

System: progenitor stem cells in the subgranular zone (SGZ) of the hippocampus
Assay: BrdU immunostaining, long-term survivability of progenitor stem cells in SGZ
Format: in vivo, rat
Settings: for number of surviving cells in the SGZ relative to saline controls / basal levels: 4 weeks after the last BrdU injection
Experimental: Antidepressant treatment and BrdU dosing. Dosing of adult male Sprague Dawley rats was performed as described above for 14 days (n=10 rats per group). To evaluate the effect of chronic antidepressant treatment on proliferation of progenitor stem cells, 24 hours after the last antidepressant injection, rats were administered BrdU (Sigma, St. Louis, Mo.) (50 mg/kg rig ip injection twice a day) for 4 days prior to euthanesia. To evaluate the effect of chronic antidepressant treatment on survival of progenitor stem cells, a sub-group of rats were allowed to live for 4 weeks after BrdU injection. All rats were perfused through the ascending aorta with 50 ml of 0.9% saline, followed by 400 ml of freshly prepared 4% paraformaldehyde in PBS (pH 7.5). After 30-60 minutes post-perfusion, rat brains were removed and postfixed in 4% paraformaldehyde in PBS overnight, followed by immersion in 30% sucrose/PBS solution for 48-72 hours at 4° C. Brains were rapidly frozen on dry-ice and stored at −80° C. Brain sectioning and staining for BrdU immunoreactivity were performed as previously described by Malberg et al. (2000). Briefly, serial coronal sections of each brain were cut (35 μm thickness) through the entire hippocampus (stereotaxic plates 26-40 according to Paxinos, Watson and Emson, 1980) using a freezing microtome. Every sixth section throughout the hippocampus was processed for BrdU staining. Free-floating sections were maintained in 100 mM PBS (about 100 sections per brain). DNA denaturation of the sections was performed as follows: sections were treated with 50% formamide/50% 2×SSC (0.3 M NaCl/0.03 M sodium citrate) for 2 hours at 65° C., rinsed in PBS (2 times for 5 minutes at room temperature), incubated with 2 N HCl for 30 minutes, followed by 0.1 M boric acid buffer (pH 8.5) for 10 minutes and a final rinse in PBS. For BrdU immunostaining, sections were incubated with 3% H2O2 in PBS for 30 minutes, rinsed in PBS and blocked with 3% normal horse serum in 0.01% TritonX-100 for 30 minutes. Anti-mouse BrdU (1:250 Sigma) was applied to the free-floating sections and incubated overnight at 4° C. The sections were rinsed in PBS, incubated with biotinylated horse, anti-mouse IgG (Vector Lab) for 30 minutes and washed in PBS. ABC reagent complex (Vectastain Elite kit from Vector) was added (as per manufacturer's instructions) for 30 minutes, followed by rinsing in PBS and color development with DAB solution for 4 minutes. Sections were mounted on glass slides and coverslipped. All BrdU labeled cells in the subgranular zone (SGZ) were counted in each section by an experimenter blinded to the study code. All counts were performed at 200× magnification using a light microscope (Zeiss Axiovert 135). The total number of BrdU labeled cells per section were determined and multiplied by 12 to obtain the total number of cells per dentate gyrus. Comparative analyses between treatments were performed using a Tukey HSD post hoc analysis for multiple comparisons.
In vivo studies were performed to measure the effects of antidepressant drug treatment on adult hippocampal neurogenesis by immunological methods. The method used to detect cell proliferation involved 5-bromo-2-deoxyuridine (BrdU) dosing twice a day for 4 days after a 2 week systemic administration of either saline, fluoxetine or venlafaxine. The presence of BrdU within the vicinity of dividing progenitor stem cells in the hippocampal region allowed for its incorporation and the detection of DNA synthesis (the more cell proliferation the more DNA synthesis). The number of BrdU-positive cells was visualized by immunoperoxidase staining. The BrdU immunostaining and quantitative results indicated a significant increase (˜33%) in the proliferation rate of progenitor stem cells in the subgranular zone (SGZ) of the hippocampus for both venlafaxine (P<0.01; n=5) and fluoxetine (P<0.01; n=5) versus saline controls. […]

SMILES | number of surviving cells in the SGZ relative to saline controls / basal levels (FIG. 1B) | number of surviving cells in the SGZ relative to saline controls / basal levels (FIG. 1B, listed as fluoxetine) | sustainability in the rate of proliferation and survivability of progenitor stem cells over basal levels (4 weeks after the last antidepressant dose) [%] | overall number of surviving cells, venlafaxine versus fluoxetine (FIG. 1B, P<0.01) | more cells compared with fluoxetine (long-term survivability, venlafaxine versus fluoxetine) [%]
CNCCC(Oc1ccc(C(F)(F)F)cc1)c1ccccc1 (stereo not drawn) [Fluoxetine, fluoxetine] | significant preservation of proliferative and survivability effects over basal levels | increased the number of surviving cells in the SGZ | – | – | –
COc1ccc(C(CN(C)C)C2(O)CCCCC2)cc1 (stereo not drawn) [Venlafaxine, venlafaxine] | increased the number of surviving cells in the SGZ | – | 80 | significant increase in the overall number of surviving cells | ~40
